Test results as given in paper PMC11923649, “Novel C-2 Aromatic Heterocycle-Substituted Triterpenoids Inhibit Hedgehog Signaling in GLI1 Overexpression Cancer Cells” (ACS Omega, 2025).

Key:
DU-145 (prostate cancer) = assay: MTS cytotoxicity assay, 72 h, DU-145; assay type: cell-based, human; details: Homo sapiens, DU-145, 72 h, Table 1
Outline: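 MTS read-out (A490 after 1–4 h with MTS/PMS) following 72 h continuous compound treatment. Concentrations spanned 50–0.0975 μmol/L in twofold steps; IC50 values calculated from the curves.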

[1] = Caco-2 permeability assay; assay type: in vitro ADME; details: human, Caco-2; for Papp A→B: cm/s, read-out: Caco-2 Papp (×10^−6)
Source text: (§1) The Parallel Artificial Membrane Permeability Assay (PAMPA) has emerged as a primary screen for determining passive transcellular permeability. […] The Caco-2 and MDCK-MDR1 permeability assays are established models of intestinal[37] and blood-brain barriers, respectively.[38]

MDR1 = assay: Caco-2 permeability assay; assay type: in vitro ADME; details: human, Caco-2; B–A / A–B
Source text: as §1

Caco-2 monolayer = assay: Caco-2 permeability assay; assay type: in vitro ADME
Source text: as §1

[2] = tested on: K562 (chronic myelogenous leukemia); assay: MTS cytotoxicity assay, 72 h, K562; assay type: cell-based; details: Homo sapiens, Table 1
Outline: (§2)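 Seed cells; next day add compound (50–0.0975 μmol/L, 2-fold steps); incubate 72 h, 37 °C, 5% CO2; add MTS/PMS, 1–4 h; read A490; fit IC50.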

[3] = tested on: Gli1 protein in A549 cells; assay: Western blot of Gli1 in A549 cells, 24 h; assay type: cell-based, human; details: A549, 24 h, immunoblot
Experimental: (§3) In order to verify that compounds 11a and 11b inhibit the proliferation of A549 and DU-145 through Hh inhibition, we monitored the expression of Hh target genes in these cell lines (Figure 2). […] The decreased protein expression of Gli1 targets Cyclin D1, N-Myc, and Bcl-2 strongly indicates inhibition of its transcriptional activity, and their downregulation correlates with the data obtained by the U-87 MG-Gli-FLuc reporter assay. Importantly, these proteins are involved in cell cycle progression, proliferation, and survival. N-Myc amplification or deregulation of transcription, stability, and degradation is associated with many malignancies,[34] and the observed downregulation induced by 11a and 11b may reduce its oncogenic effect.
(§4) Figure 2 Effect of compounds 11a and 11b on the protein expression of the Gli1 transcription factor and its transcriptional targets in A549 (A) and DU145 (B) cells following 24 h of incubation. […]
(§5) Cells were washed with PBS and lysed on ice in 200 μL of RIPA (Radioimmunoprecipitation Assay) buffer for 30 min. Then, cell lysates were clarified by centrifugation (15000 rpm, 20 min, 4 °C), and the protein concentration in the collected supernatants was determined using a BCA method (Bicinchoninic Acid test). […] Luminescence signal detection was performed by using an Odyssey FC instrument (LI-COR Biosciences).

[4] = tested on: Gli1 protein in DU-145 cells; assay: Western blot of Gli1 in DU-145 cells, 24 h; assay type: cell-based, human; details: DU-145, 24 h, immunoblot
Experimental: as §3, §4, §5

[5] = tested on: A549 (lung adenocarcinoma); assay: MTS cytotoxicity assay, 72 h, A549; assay type: cell-based; details: Homo sapiens, A549, 72 h
Outline: as §2

K562-TAX = assay: MTS cytotoxicity assay, 72 h, K562-TAX; assay type: cell-based
U2OS = assay: MTS cytotoxicity assay, 72 h, U2OS; assay type: cell-based; details: Homo sapiens

SMILES	IC50 (DU-145 (prostate cancer))	recovery [1]	Papp A→B [1]	efflux ratio (MDR1)	Caco-2 Active efflux (Caco-2 monolayer)	IC50 [2]	Endogenous Gli1 protein level [3]	Endogenous Gli1 protein level [4]	IC50 ([5]; Table 1)	IC50 ([5]; full Table S1)	IC50 (K562-TAX; Table 1)	IC50 (K562-TAX; full Table S1)	IC50 (U2OS; Table 1)	IC50 (U2OS; full Table S1)
C=C(C)[C@@H]1CC[C@]2(C(=O)O)CC[C@]3(C)C(CCC4[C@@]5(C)C=C(c6ccco6)C(=O)C(C)(C)C5CC[C@]43C)C12 (stereo partly shown) [Compound 11a, 2-(Furan-2-yl)-3-oxolupa-1,20(29)-dien-28-oic acid]	7.9 µM	68.5%	0.44 ×10⁻⁶ cm/s	2.33	Yes	6.3 µM	inhibit the endogenous Gli1 protein level in a dose-dependent manner	inhibit the endogenous Gli1 protein level in a dose-dependent manner	12 µM	12.1 µM	14 µM	13.7 µM	21 µM	20.9 µM
C=C(C)[C@@H]1CC[C@]2(C(=O)O)CC[C@]3(C)C(CCC4[C@@]5(C)C=C(c6ccoc6)C(=O)C(C)(C)C5CC[C@]43C)C12 (stereo partly shown) [Compound 11b, 2-(Furan-3-yl)-3-oxolupa-1,20(29)-dien-28-oic acid]	5.7 µM	58.2%	1.07 ×10⁻⁶ cm/s	1.77	No (less than or very close to the limit of active and passive efflux (≤2))	9.6 µM	inhibit the endogenous Gli1 protein level in a dose-dependent manner	inhibit the endogenous Gli1 protein level in a dose-dependent manner	12 µM	12.1 µM	16 µM	15.8 µM	26 µM	26.3 µM
